Where two headings read alike, the source gives them in different places.

The term Ki denotes the equilibrium dissociation constant of an inhibitor or competing ligand from its target.

For experiment [1], the target named is T1, human A1 receptors (Homo sapiens, UniProt P30542).
T1 construct: expressed in transfected cells
T1 sequence (P30542 1-326): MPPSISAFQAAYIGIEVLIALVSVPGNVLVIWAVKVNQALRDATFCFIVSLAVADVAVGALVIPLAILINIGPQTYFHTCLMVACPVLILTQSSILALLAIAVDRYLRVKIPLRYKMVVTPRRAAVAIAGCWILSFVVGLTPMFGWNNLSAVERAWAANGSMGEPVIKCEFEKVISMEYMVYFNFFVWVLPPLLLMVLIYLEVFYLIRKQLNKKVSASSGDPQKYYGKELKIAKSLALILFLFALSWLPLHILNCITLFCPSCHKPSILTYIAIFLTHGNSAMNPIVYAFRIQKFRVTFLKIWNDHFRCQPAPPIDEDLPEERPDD

The target in experiment [2] is T2, human A2B adenosine receptor (hA2BAR) (Homo sapiens, UniProt P29275).
T2 sequence (P29275 1-332): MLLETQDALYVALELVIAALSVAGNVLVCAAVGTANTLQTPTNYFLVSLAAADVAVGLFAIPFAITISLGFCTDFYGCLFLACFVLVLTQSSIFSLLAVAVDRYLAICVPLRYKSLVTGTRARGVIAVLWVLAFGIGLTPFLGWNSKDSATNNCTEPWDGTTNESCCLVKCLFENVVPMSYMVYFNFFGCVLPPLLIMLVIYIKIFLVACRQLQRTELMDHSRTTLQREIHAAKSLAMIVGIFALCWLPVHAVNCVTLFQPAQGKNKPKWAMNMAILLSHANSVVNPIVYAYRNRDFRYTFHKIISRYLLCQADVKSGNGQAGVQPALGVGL
As to conditions: data from literature (footnotes c, f, h); cited from earlier work.

Experiment [3] concerns the target T3, rat A3 adenosine receptor (Rattus norvegicus, UniProt P28647).
T3 construct: expressed in transfected cells; host or cells: CHO cells
T3 sequence (P28647 1-320): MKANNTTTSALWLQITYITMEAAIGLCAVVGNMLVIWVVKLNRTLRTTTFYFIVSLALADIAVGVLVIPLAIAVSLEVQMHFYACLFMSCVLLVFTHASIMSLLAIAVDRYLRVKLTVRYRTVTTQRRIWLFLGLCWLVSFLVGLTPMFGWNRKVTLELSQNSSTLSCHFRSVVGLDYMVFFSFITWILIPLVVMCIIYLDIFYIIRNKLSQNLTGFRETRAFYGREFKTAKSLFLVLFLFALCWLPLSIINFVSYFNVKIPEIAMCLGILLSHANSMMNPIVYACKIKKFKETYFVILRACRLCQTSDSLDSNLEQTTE

Experiment [4] concerns the target T4, human A3 adenosine receptor (Homo sapiens, UniProt P0DMS8).
T4 sequence (P0DMS8 1-318): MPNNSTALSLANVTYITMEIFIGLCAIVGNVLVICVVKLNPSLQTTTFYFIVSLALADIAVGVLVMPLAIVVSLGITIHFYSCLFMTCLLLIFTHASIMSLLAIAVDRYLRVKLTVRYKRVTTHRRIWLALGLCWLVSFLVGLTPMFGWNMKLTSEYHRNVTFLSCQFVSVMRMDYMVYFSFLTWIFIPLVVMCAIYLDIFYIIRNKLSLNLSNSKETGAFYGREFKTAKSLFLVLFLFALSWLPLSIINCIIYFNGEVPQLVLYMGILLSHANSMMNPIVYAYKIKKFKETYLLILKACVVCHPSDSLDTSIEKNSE
More on the design: expressed in transfected cells; host or cells: CHO cells. As to conditions: relative to 10 μM Cl-IB-MECA, data from literature (footnotes c, d, e, f); cited from earlier work.

Experiment [5] deals with T3, rat A3 adenosine receptor. The experiment can be described thus: Binding at rat A3 adenosine receptor ([125I]I-AB-MECA, CHO cell membranes). The note with it: rat A3 AR in CHO cells; unit nM printed in b194 only; read-out: Ki(rA3AR).
Method: (§1) Striatal and forebrain tissues from Wistar rats were homogenized in ice-cold 50 mM Tris-HCl buffer, pH 7.4, using an electric homogenizer. The homogenate was centrifuged at 20,000 g for 10 min at 4° C., and the pellet was washed in fresh buffer. The final pellet was stored at −80° C. until the binding experiments. The protein concentration was measured using the Bradford assay. […] The mixtures were incubated at 37° C. for 60 min. […] Filters were washed three times with 9 ml ice-cold buffer. Radioactivity was determined in a Beckman 5500B γ-counter. Statistical analysis Binding and functional parameters were calculated using Prism 5.0 software (GraphPAD, San Diego, Calif., USA). IC50 values obtained from competition curves were converted to Ki values using the Cheng-Prusoff equation.
Experiment [6] deals with T5, human A2A receptors (Homo sapiens, UniProt P29274).
T5 construct: expressed in transfected cells

Experiment [7] has as its target T4, human A3 adenosine receptor. Set-up: expressed in transfected cells; host or cells: CHO cells. The note with it: data from literature (footnotes c, d, e, f); read-out: Ki(hA3AR); cited from earlier work.
The target of experiment [8] is T1, human A1 receptors. The experiment can be described thus: Binding at human A1 adenosine receptor ([3H]R-PIA, CHO cell membranes). As to conditions: mean ± s.e.m., n = 3-5, read-out: Ki(hA1AR).
Method: (§2) Binding assays at the A1 and A2A receptors. […] Reaction was terminated by filtration with GF/B filters.
(§3) Statistical analysis Binding and functional parameters were calculated using Prism 5.0 software (GraphPAD, San Diego, Calif., USA). IC50 values obtained from competition curves were converted to Ki values using the Cheng-Prusoff equation.
Experiment [9] has as its target T5, human A2A receptors. The experiment can be described thus: Binding at human A2A adenosine receptor ([3H]CGS21680, HEK-293 cell membranes). As to conditions: [3H]CGS 21680; for Ki: mean ± s.e.m., n = 3-5, read-out: Ki(hA2AAR).
Method: as §2, §3
Experiment [10] concerns the target T4, human A3 adenosine receptor. The experiment is described as follows: Cyclic AMP accumulation assay (inhibition of forskolin-stimulated cAMP), CHO cells expressing human A3 adenosine receptor. The note with it: 10 μM, relative to 10 μM Cl-IB-MECA.
Method: (§4) The cyclic AMP accumulation assay was performed as follows. Intracellular cyclic AMP levels were measured with a competitive protein binding method. […] After centrifugation and resuspension in medium, cells were plated in 24-well plates in 1.0 ml medium. […] The reaction was terminated by removing the supernatant, and cells were lysed upon the addition of 200 μL of 0.1 M ice-cold HCl. The cell lysate was resuspended and stored at −20° C. For determination of cyclic AMP production, protein kinase A (PKA) was incubated with [^3H]cyclic AMP (2 nM) in K2HPO4/EDTA buffer (K2HPO4, 150 mM; EDTA, 10 mM), 20 μL of the cell lysate, and 30 μL 0.1 M HCl or 50 μL of cyclic AMP solution (0-16 pmol/200 μL for standard curve). Bound radioactivity was separated by rapid filtration through Whatman GF/C filters and washed once with cold buffer. Bound radioactivity was measured by liquid scintillation spectrometry.
(§5) Forskolin (10 μM) was used to stimulate cyclic AMP levels.
For experiment [11], the target named is T2, human A2B adenosine receptor (hA2BAR). The experiment is described as follows: Activation of human A2B adenosine receptor at 10 μM. In kind it is cell-based. As to conditions: CHO cells.
The target in experiment [12] is T4, human A3 adenosine receptor.
Method: as §4, §5
The target is the same in experiment [13]. The experiment can be described thus: Binding at human A3 adenosine receptor ([125I]I-AB-MECA, CHO cell membranes). Set-up: expressed in transfected cells; host or cells: CHO cells. The note with it: for Ki: [125I]I-AB-MECA, mean ± s.e.m., n = 3-5, read-out: Ki(hA3AR).
Method: as §1
Where [14] appears, read: data from literature (footnotes c, d, f, g); read-out: Ki(hA1AR); cited from earlier work.
Where [15] appears, read: rat A3 AR; data from literature (footnotes c, d, f, i); unit nM printed in b194 only; read-out: Ki(rA3AR); cited from earlier work.
[16] abbreviates: read-out: Ki(hA1AR); data from literature (footnotes c, d, f, g); cited from earlier work.
Setting [17] is: 10 μM; data from Ohno et al. (footnote c); cited from earlier work.
The mark [18] stands for this setting: read-out: Ki(hA2AAR); data from literature (footnotes c, d, f, g); cited from earlier work.

T5 sequence (P29274 whole entry): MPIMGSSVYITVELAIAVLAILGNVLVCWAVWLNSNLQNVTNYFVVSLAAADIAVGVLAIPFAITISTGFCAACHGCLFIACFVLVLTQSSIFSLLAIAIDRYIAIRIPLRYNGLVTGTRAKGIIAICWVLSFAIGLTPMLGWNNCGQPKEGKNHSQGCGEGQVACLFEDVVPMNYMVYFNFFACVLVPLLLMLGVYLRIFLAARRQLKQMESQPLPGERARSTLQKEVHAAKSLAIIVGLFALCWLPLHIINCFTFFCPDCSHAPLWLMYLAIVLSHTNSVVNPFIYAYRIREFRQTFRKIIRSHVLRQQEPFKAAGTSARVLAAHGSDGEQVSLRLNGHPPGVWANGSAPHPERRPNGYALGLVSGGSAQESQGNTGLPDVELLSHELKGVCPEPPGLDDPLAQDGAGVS

Regarding `OCC1OC(n2cnc3c(NCc4cccc(I)c4)ncnc32)C(O)C1O` (centres unmarked) [Compound 1a], the Ki on human A1 receptors [1] (setting [14]) was 7.4 ± 1.7 nM; in experiment [3] (setting [15]), 9.5 ± 1.4 nM. The “% Activation (hA2BAR) at 10 μM” value in [2] was 58%. Also, in experiment [4], the “% Activation (hA3AR) at 10 μM” value is reported as 46 ± 8%.

As to `OCC1OC(n2cnc3c(NCc4cccc(I)c4)nc(Cl)nc32)C(O)C1O` (centres unmarked) [Compound 1b], the Ki on human A1 receptors [1] (setting [16]) is 17 ± 2 nM; in experiment [3] (read-out: Ki(rA3AR); rat A3 AR; data from literature (footnotes c, d, f, i); unit nM printed in b194 only; cited from earlier work) it was 2.7 ± 1.2 nM. The “% Activation (hA2BAR) at 10 μM” value in [2] is reported as 16%. The “% Activation (hA3AR) at 10 μM” value in experiment [4] is reported as 0%.

With `CNC(=O)[C@@]12C[C@@H]1[C@@H](n1cnc3c(NCc4cccc(I)c4)nc(Cl)nc31)[C@H](O)[C@@H]2O` [Compound 5, (1′S,2′R,3′S,4′R,5′S)-[4′-(2-chloro-6-{[(3-iodophenyl)methyl]amino}purin-9-yl)-2′,3′-dihydroxybicyclo[3.1.0]hexyl]-N-methylcarboxamide], the Ki in experiment [5] was determined as 1.1 ± 0.1 nM. Besides, the “% Activation (hA3AR) at 10 μM” value in [4] is 100^e %.

Regarding `CNc1ncnc2c1ncn2C1OC(CO)C(O)C1O` (centres unmarked) [Compound 6], the Ki is 6000 ± 2000 nM at human A1 receptors [1] (setting [16]), 6400 ± 1600 nM in [3] (setting [15]) and 9.3 ± 0.4 nM in experiment [7]. Also, the “% displ. at 10 μM (hA2AAR)” value on human A2A receptors [6] (setting [17]) was 17%. In experiment [2], the “% Activation (hA2BAR) at 10 μM” value is listed as 16%.

For `CNc1nc(N)nc2c1ncn2C1OC(CO)C(O)C1O` (centres unmarked) [Compound 7], the results for the Ki (on human A1 receptors [1] (setting [16]); in experiment [3] (setting [15]); in experiment [7]) were 480 ± 20 nM, more than 10000 nM and 39 ± 2 nM, respectively. For the same compound, on human A2A receptors [6] (setting [17]), the “% displ. at 10 μM (hA2AAR)” value is 15%. The “% Activation (hA2BAR) at 10 μM” value in experiment [2] was 11%. For the same compound, the “% Activation (hA3AR) at 10 μM” value in [4] is 98 ± 3%.

`OCC1OC(n2cnc3c(NC4CC4c4ccccc4)ncnc32)C(O)C1O` (centres unmarked) [Compound 10]: the Ki was 2500 ± 700 nM at human A2A receptors [6] (data from literature (footnotes c, d, f, g); read-out: Ki(hA2AAR); cited from earlier work) and 400 ± 30 nM in experiment [3] (setting [15]). The “% Activation (hA2BAR) at 10 μM” value in [2] is on record as 26%. Also, the “% Activation (hA3AR) at 10 μM” value in experiment [4] is recorded as 101 ± 5%.

With `Cc1ccccc1CNc1ncnc2c1ncn2C1OC(CO)C(O)C1O` (centres unmarked) [Compound 11], the Ki is 39 ± 8 nM at human A1 receptors [1] (setting [16]), 760 ± 110 nM at human A2A receptors [6] (setting [18]), 38 ± 15 nM in [3] (setting [15]) and 47 ± 11 nM in [7]. In addition, the “% Activation (hA3AR) at 10 μM” value in [4] was 100 ± 3%.

For `OCC1OC(n2cnc3c(NCc4cccnc4)ncnc32)C(O)C1O` (centres unmarked) [Compound 12], the Ki was 42 ± 4 nM on human A1 receptors [1] (setting [14]), 2300 ± 120 nM at human A2A receptors [6] (setting [18]), 290 ± 70 nM in experiment [3] (setting [15]) and 4.5 ± 1.1 nM in [7]. Also, the “% Activation (hA3AR) at 10 μM” value in [4] is on record as 100 ± 6%.

Consider `OCC1OC(n2cnc3c(NCC(c4ccccc4)c4ccccc4)ncnc32)C(O)C1O` (centres unmarked) [Compound 13], for which the “% Activation (hA2BAR) at 10 μM” value in experiment [2] is 70%. In addition, in experiment [3] (setting [15]), the Ki was 540 ± 200 nM. For the same compound, the “% Activation (hA3AR) at 10 μM” value in experiment [4] is recorded as 0%.

Turning to `CNC(=O)[C@@]12C[C@@H]1[C@@H](n1cnc3c(NC)nc(Cl)nc31)[C@H](O)[C@@H]2O` [Compound 14], the Ki on human A1 receptors [8] was determined as 2100 ± 1700 nM; in experiment [5] it was 160 ± 30 nM. Moreover, the “% displ. at 10 μM (hA2AAR)” value at human A2A receptors [9] was determined as 6%. Moreover, in experiment [10], the “% Activation (hA3AR) at 10 μM” value is given as 104 ± 7%.

Take `CNC(=O)C12CC1C(n1cnc3c(NCc4cccc(Br)c4)nc(Cl)nc31)C(O)C2O` (stereo not drawn) [Compound 17, (1′S,2′R,3′S,4′S,5′S)-4′-[6-(3-Bromobenzylamino)-2-chloro-purin-9-yl]-2′,3′-dihydroxy-bicyclo[3.1.0]hexane-1′-carboxylic acid methyl amide]: the Ki on human A1 receptors [8] amounted to 270 ± 70 nM; at human A2A receptors [9], 1300 ± 100 nM; in [5] it was 0.76 ± 0.08 nM; in experiment [13], 0.38 nM. The “% Activation (hA2BAR) at 10 μM” value in experiment [11] was found to be 38%. In [12], the “% Activation (hA3AR) at 10 μM” value worked out at 100 ± 11%.

Regarding `CNC(=O)[C@@]12C[C@@H]1[C@H](n1cnc3c(NCc4cccc(Cl)c4)nc(Cl)nc31)[C@H](O)[C@@H]2O` [Compound 18, (1′S,2′R,3′S,4′S,5′S)-4′-[6-(3-Chlorobenzylamino)-2-chloro-purin-9-yl]-2′,3′-dihydroxy-bicyclo[3.1.0]hexane-1′-carboxylic acid methylamide], the Ki on human A1 receptors [8] is 260 ± 60 nM; at human A2A receptors [9], 2300 ± 100 nM; in [5] it was 1 ± 0.1 nM. The “% Activation (hA2BAR) at 10 μM” value in experiment [11] is reported as 38%.

For the compound `CNC(=O)C12CC1C(n1cnc3c(NCc4cc(Cl)ccc4OCc4ccccc4)nc(Cl)nc31)C(O)C2O` (stereo not drawn) [Compound 24, (1′S,2′R,3′S,4′S,5′S)-4′-[6-(5-Chloro-2-benzyloxy-benzylamino)-2-chloro-purin-9-yl]-2′,3′-dihydroxy-bicyclo[3.1.0]hexane-1′-carboxylic acid methylamide], the Ki at human A1 receptors [8] worked out at 1200 ± 200 nM; on human A2A receptors [9] it was 850 ± 160 nM; in [5], 11 ± 3 nM; in experiment [13], 5.2 ± 1.3 nM. For the same compound, the “% Activation (hA2BAR) at 10 μM” value in experiment [11] was 49%. Also, the “% Activation (hA3AR) at 10 μM” value in [10] is 110 ± 10%.

For the compound `CNC(=O)C12CC1C(n1cnc3c(NCc4cc(OC)ccc4OC)nc(Cl)nc31)C(O)C2O` (stereo not drawn) [Compound 26, (1′S,2′R,3′S,4′S,5′S)-4′-[6-(2,5-Dimethoxy-benzylamino)-2-chloro-purin-9-yl]-2′,3′-dihydroxy-bicyclo[3.1.0]hexane-1′-carboxylic acid methylamide], the Ki is 1600 ± 200 nM at human A1 receptors [8], 0.87 ± 0.24 nM in [5] and 1.4 ± 0.2 nM in experiment [13]. Moreover, the “% displ. at 10 μM (hA2AAR)” value at human A2A receptors [9] worked out at 52%. For the same compound, the “% Activation (hA2BAR) at 10 μM” value in [11] came to 0%. Besides, the “Selectivity for the human A3 adenosine receptor in comparison to the A1 adenosine receptor” value in experiment [13] (ratio of Ki hA1 / hA3) is reported as 1200 fold. Besides, the “% Activation (hA3AR) at 10 μM” value in experiment [10] was determined as 107 ± 10%.
